Assay results published in patent US20220015361A1, “COMPOSITIONS COMPRISING HALAUXIFEN AND OTHER HERBICIDES AND METHODS THEREOF” (DOW AGROSCIENCES LLC, priority 2018, published 2022).

Test system: ERISU (Conyza sumatrensis, Sumatran fleabane)
Assay: greenhouse post-emergence foliar weed control, visual score 0-100 percent
Format: in vivo
Settings: 49 gai/ha
Source text: Results in Examples are greenhouse trial results.
Seeds or nutlets of the desired test plant species were planted in a soil matrix prepared by mixing a loam or sandy loam soil (e.g., 28.6 percent silt, 18.8 percent clay, and 52.6 percent sand, with a pH of about 5.8 and an organic matter content of about 1.8 percent) and calcareous grit in an 80 to 20 ratio. The soil matrix was contained in plastic pots with a volume of 1 quart and a surface area of 83.6 cm2. When required to ensure good germination and healthy plants, a fungicide treatment and/or other chemical or physical treatment was applied. The plants were grown for 8-22 days in a greenhouse with an approximate 14 h photoperiod which was maintained at about 29° C. during the day and 26° C. during the night. Nutrients (Peters Excel® 15-5-15 5-Ca 2-Mg and iron chelate) were applied in the irrigation solution as needed and water was added on a regular basis. Supplemental lighting was provided with overhead metal halide 1000-Watt lamps as necessary. The plants were employed for testing when they reached the first through fourth true leaf stage.
Treatments comprised of the acid or esters of halauxifen-methyl (methyl 4-amino-3-chloro-6-(4-chloro-2-fluoro-3-methoxyphenyl)picolinate), each formulated as an SC (suspension concentrate), and various herbicidal components alone and in combination. A form of the compound of Formula I were applied on an acid equivalent basis.
Treatment requirements were calculated based upon the rates being tested, the concentration of active ingredient or acid equivalent in the formulation, and a 12 mL application volume at a rate of 187 L/ha.
For treatments comprised of formulated and technical compounds, weighed amounts of the technical materials were placed individually in 25 mL glass vials and dissolved in a volume of 97:3 v/v acetone/DMSO to obtain 12× stock solutions, and measured amounts of the formulated compounds were placed individually in 25 mL glass vials and diluted in a volume of 1.5% (v/v) crop oil concentrate or water to obtain 12× stock solutions. […] As required, additional water and/or 97:3 v/v acetone/DMSO was added to individual application solutions so that the final acetone and DMSO concentrations of the application solutions being compared were 8.1% and 0.25%, respectively.
All stock solutions and applications solutions were visually inspected for compound compatibility prior to application. Spray solutions were applied to the plant material with an overhead Mandel track sprayer equipped with an 8002E nozzle calibrated to deliver 187 L/ha over an application area of 0.503 m2 at a spray height of 18 to 20 inches (46 to 50 cm) above average plant canopy height. Control plants were sprayed in the same manner with the solvent blank.
The treated plants and control plants were placed in a greenhouse as described above and watered by sub-irrigation to prevent wash-off of the test compounds. […]
Table 1 illustrates weed control for foliar applications of compositions comprising halauxifen-methyl+2,4-D-dimethylammonium (2,4-D-DMA)+saflufenacil on various broadleaf weeds. […] The compositions disclosed herein can be used in burndown and fallow crop applications or in herbicide tolerant crops. These compositions can be used for broad-spectrum control of broadleaf weeds including, but not limited to, ALS, auxinic, HPPD, PPO, saflufenacil and glyphosate resistant broadleaf weeds. The compositions disclosed herein can have utility in AAD1 and AAD12 monocot and dicot crops whereby there is crop tolerance to all 3 modes of action, providing growers with a solution to control susceptible and resistant broadleaf weeds, as well as to delay the development of resistance by the use of 3 modes of action product. The compositions disclosed herein can be used in non-crop and R&P/IVM situations, post directed in perennial crops, and potentially across many crops where there is tolerance to all 3 modes of action.

Structure (SMILES): CC(C)N(C)S(=O)(=O)NC(=O)c1cc(-n2c(=O)cc(C(F)(F)F)n(C)c2=O)c(F)cc1Cl [saflufenacil, 2-chloro-5-[3,6-dihydro-3-methyl-2,6-dioxo-4-(trifluoromethyl)-1(2H)-pyrimidinyl]-4-fluoro-N-[[methyl(1-methylethyl)amino]sulfonyl]benzamide]
- Chem 2 Actual Mean % Weed Control (Trial 1, ERISU, 17DAA): 52.50%
- Chem 2 Actual Mean % Weed Control (Trial 1, ERISU, 28DAA): 66.25%
- Chem 2 Actual Mean % Weed Control (Trial 1, ERISU, 43DAA): 77.50%
- Chem 2 Actual Mean % Weed Control (Trial 2, ERISU, 17DAA): 66.25%
- Chem 2 Actual Mean % Weed Control (Trial 2, ERISU, 28DAA): 97.50%
- Chem 2 Actual Mean % Weed Control (Trial 2, ERISU, 43DAA): 98.25%
